Data reported in PubChem BioAssay (NCI).
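Five concentrations, 48 hours, 96-well plates. TGI is the concentration that stops growth completely.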

Tests used:
Assay in all cases: NCI anticancer screen, dose series, 48 h
MALME-3M melanoma = system: MALME-3M melanoma
HS 578T breast = system: HS 578T breast
MDA-N = system: MDA-N
786-0 renal = system: 786-0 renal
OVCAR-3 ovarian = system: OVCAR-3 ovarian
SK-MEL-28 melanoma = system: SK-MEL-28 melanoma
SNB-75 CNS = system: SNB-75 CNS
UACC-62 melanoma = system: UACC-62 melanoma
SK-MEL-5 melanoma = system: SK-MEL-5 melanoma
OVCAR-4 ovarian = system: OVCAR-4 ovarian
A549 NSCLC = system: A549 NSCLC
BT-549 breast = system: BT-549 breast
K-562 leukemia = system: K-562 leukemia
NCI-H460 lung = system: NCI-H460 lung
RPMI-8226 leukemia = system: RPMI-8226 leukemia
HOP-62 NSCLC = system: HOP-62 NSCLC
MDA-MB-231 breast = system: MDA-MB-231 breast
NCI-H23 lung = system: NCI-H23 lung
U251 CNS = system: U251 CNS
OVCAR-5 ovarian = system: OVCAR-5 ovarian
UO-31 renal = system: UO-31 renal
HL-60(TB) leukemia = system: HL-60(TB) leukemia
M14 melanoma = system: M14 melanoma
SK-OV-3 ovarian = system: SK-OV-3 ovarian
RXF 393 renal = system: RXF 393 renal
NCI-H522 lung = system: NCI-H522 lung
SK-MEL-2 melanoma = system: SK-MEL-2 melanoma
HOP-92 NSCLC = system: HOP-92 NSCLC
SF-268 CNS = system: SF-268 CNS
A498 renal = system: A498 renal
SN12C renal = system: SN12C renal
SW-620 colon = system: SW-620 colon
MDA-MB-435 = system: MDA-MB-435
EKVX NSCLC = system: EKVX NSCLC
LOX IMVI melanoma = system: LOX IMVI melanoma
COLO 205 colon = system: COLO 205 colon
NCI-H226 lung = system: NCI-H226 lung
SF-295 CNS = system: SF-295 CNS
IGROV1 ovarian = system: IGROV1 ovarian
SNB-19 CNS = system: SNB-19 CNS
OVCAR-8 ovarian = system: OVCAR-8 ovarian
HCT-116 colon = system: HCT-116 colon
T-47D breast = system: T-47D breast
HCT-15 colon = system: HCT-15 colon
NCI/ADR-RES ovarian = system: NCI/ADR-RES ovarian
KM12 colon = system: KM12 colon
PC-3 prostate = system: PC-3 prostate
TK-10 renal = system: TK-10 renal
ACHN renal = system: ACHN renal
MOLT-4 leukemia = system: MOLT-4 leukemia
SR leukemia = system: SR leukemia
HT29 colon = system: HT29 colon
MCF7 breast = system: MCF7 breast
DU-145 prostate = system: DU-145 prostate
UACC-257 melanoma = system: UACC-257 melanoma
HCC-2998 colon = system: HCC-2998 colon
CAKI-1 renal = system: CAKI-1 renal
CCRF-CEM leukemia = system: CCRF-CEM leukemia
SF-539 CNS = system: SF-539 CNS

In the case of `CCOC(=O)N1c2ccccc2N(C(=O)OCC)C1CC(=O)/C=C/c1ccccc1`, the TGI (MALME-3M melanoma) is reported as 18.9 µM, the TGI (HS 578T breast) is reported as > 19.9 µM and the TGI (MDA-N) is reported as 15.8 µM. The TGI (786-0 renal) was 10.6 µM, the TGI (OVCAR-3 ovarian) was 9.95 µM and the TGI (SK-MEL-28 melanoma) was 28 µM. For the same compound, the TGI (SNB-75 CNS) was 9.92 µM, the TGI (UACC-62 melanoma) was 10.2 µM and the TGI (SK-MEL-5 melanoma) was 8.92 µM. The TGI (OVCAR-4 ovarian) was 6.33 µM, the TGI (A549 NSCLC) was 18.1 µM and the TGI (BT-549 breast) was 9.84 µM. The TGI (K-562 leukemia) was > 30.7 µM, the TGI (NCI-H460 lung) was 11.1 µM and the TGI (RPMI-8226 leukemia) was 26.6 µM. For the same compound, the TGI (HOP-62 NSCLC) was 17.6 µM, the TGI (MDA-MB-231 breast) was > 100 µM and the TGI (NCI-H23 lung) was 8.7 µM. For the same compound, the TGI (U251 CNS) was 12.8 µM, the TGI (OVCAR-5 ovarian) was 7.78 µM and the TGI (UO-31 renal) was 14.7 µM. For the same compound, the TGI (HL-60(TB) leukemia) was 6.94 µM, the TGI (M14 melanoma) was 19.3 µM and the TGI (SK-OV-3 ovarian) was 23 µM. The TGI (RXF 393 renal) was 13.8 µM, the TGI (NCI-H522 lung) was 6.42 µM and the TGI (SK-MEL-2 melanoma) was 7.38 µM. It also gave a TGI (HOP-92 NSCLC) of 6.16 µM, a TGI (SF-268 CNS) of 9.82 µM and a TGI (A498 renal) of 10.6 µM. It also gave a TGI (SN12C renal) of 14.4 µM, a TGI (SW-620 colon) of 25 µM and a TGI (MDA-MB-435) of 8.11 µM. For the same compound, the TGI (EKVX NSCLC) was 8.54 µM, the TGI (LOX IMVI melanoma) was 7.06 µM and the TGI (COLO 205 colon) was 4.17 µM. For the same compound, the TGI (NCI-H226 lung) was 6.04 µM, the TGI (SF-295 CNS) was 21.7 µM and the TGI (IGROV1 ovarian) was 17.8 µM. The TGI (SNB-19 CNS) was 16.8 µM, the TGI (OVCAR-8 ovarian) was 8.63 µM and the TGI (HCT-116 colon) was 11.6 µM. For the same compound, the TGI (T-47D breast) was > 100 µM, the TGI (HCT-15 colon) was 12.9 µM and the TGI (NCI/ADR-RES ovarian) was 9.77 µM. For the same compound, the TGI (KM12 colon) was 9.51 µM, the TGI (PC-3 prostate) was 19.8 µM and the TGI (TK-10 renal) was 14.4 µM. For the same compound, the TGI (ACHN renal) was 15.7 µM, the TGI (MOLT-4 leukemia) was 12.4 µM and the TGI (SR leukemia) was 5.75 µM. For the same compound, the TGI (HT29 colon) was 8.41 µM, the TGI (MCF7 breast) was 13.6 µM and the TGI (DU-145 prostate) was 9.11 µM. For the same compound, the TGI (UACC-257 melanoma) was 21.9 µM, the TGI (HCC-2998 colon) was 10.6 µM and the TGI (CAKI-1 renal) was 12.6 µM. For the same compound, the TGI (CCRF-CEM leukemia) was 4.61 µM.

In the case of `Cc1ccc(NC(=O)c2cccc(OP(=O)(Nc3ccc(C)cc3)Nc3ccc(C)cc3)c2)cc1`, the TGI (SF-539 CNS) is reported as > 100 µM, the TGI (MALME-3M melanoma) is reported as 39.6 µM and the TGI (HS 578T breast) is reported as 79.9 µM. The TGI (MDA-N) was 21.7 µM, the TGI (786-0 renal) was > 100 µM and the TGI (OVCAR-3 ovarian) was > 100 µM. For the same compound, the TGI (SK-MEL-28 melanoma) was > 100 µM, the TGI (SNB-75 CNS) was 30.6 µM and the TGI (UACC-62 melanoma) was > 100 µM. For the same compound, the TGI (SK-MEL-5 melanoma) was > 100 µM, the TGI (OVCAR-4 ovarian) was 61.9 µM and the TGI (A549 NSCLC) was 27.2 µM. For the same compound, the TGI (BT-549 breast) was > 100 µM, the TGI (K-562 leukemia) was > 100 µM and the TGI (NCI-H460 lung) was > 100 µM. For the same compound, the TGI (HOP-62 NSCLC) was > 100 µM, the TGI (MDA-MB-231 breast) was 16.1 µM and the TGI (NCI-H23 lung) was > 100 µM. For the same compound, the TGI (U251 CNS) was > 100 µM, the TGI (OVCAR-5 ovarian) was > 100 µM and the TGI (UO-31 renal) was 45.3 µM. For the same compound, the TGI (HL-60(TB) leukemia) was > 100 µM, the TGI (M14 melanoma) was 9.08 µM and the TGI (SK-OV-3 ovarian) was > 100 µM. The TGI (RXF 393 renal) was 6.75 µM, the TGI (NCI-H522 lung) was 12 µM and the TGI (SK-MEL-2 melanoma) was > 100 µM. The TGI (HOP-92 NSCLC) was 8.93 µM, the TGI (SF-268 CNS) was > 100 µM and the TGI (A498 renal) was 62.3 µM. The TGI (SN12C renal) was > 100 µM, the TGI (SW-620 colon) was > 100 µM and the TGI (MDA-MB-435) was > 100 µM. For the same compound, the TGI (EKVX NSCLC) was > 100 µM, the TGI (LOX IMVI melanoma) was > 100 µM and the TGI (COLO 205 colon) was 5.27 µM. For the same compound, the TGI (NCI-H226 lung) was 63.6 µM, the TGI (SF-295 CNS) was > 100 µM and the TGI (IGROV1 ovarian) was > 100 µM. For the same compound, the TGI (SNB-19 CNS) was > 100 µM, the TGI (OVCAR-8 ovarian) was > 100 µM and the TGI (HCT-116 colon) was 80.8 µM. The TGI (T-47D breast) was > 100 µM, the TGI (HCT-15 colon) was > 100 µM and the TGI (NCI/ADR-RES ovarian) was > 100 µM. For the same compound, the TGI (KM12 colon) was > 100 µM, the TGI (PC-3 prostate) was > 100 µM and the TGI (TK-10 renal) was 83.4 µM. It also gave a TGI (ACHN renal) of 20.6 µM, a TGI (MOLT-4 leukemia) of 6.37 µM and a TGI (SR leukemia) of 17.1 µM. For the same compound, the TGI (HT29 colon) was 14.9 µM, the TGI (MCF7 breast) was > 100 µM and the TGI (DU-145 prostate) was > 100 µM. For the same compound, the TGI (UACC-257 melanoma) was > 100 µM, the TGI (HCC-2998 colon) was > 100 µM and the TGI (CAKI-1 renal) was > 100 µM. The TGI (CCRF-CEM leukemia) was > 100 µM.

With `CC(C)N(CC(=O)O)CC(=O)O` the TGI (SF-539 CNS) was > 100 µM, the TGI (MALME-3M melanoma) was > 100 µM and the TGI (HS 578T breast) was > 100 µM. The TGI (MDA-N) was > 100 µM, the TGI (786-0 renal) was > 100 µM and the TGI (OVCAR-3 ovarian) was > 100 µM. The TGI (SK-MEL-28 melanoma) was > 100 µM, the TGI (SNB-75 CNS) was > 100 µM and the TGI (UACC-62 melanoma) was > 100 µM. For the same compound, the TGI (SK-MEL-5 melanoma) was > 100 µM, the TGI (OVCAR-4 ovarian) was > 100 µM and the TGI (A549 NSCLC) was > 100 µM. The TGI (BT-549 breast) was > 100 µM, the TGI (K-562 leukemia) was > 100 µM and the TGI (NCI-H460 lung) was > 100 µM. The TGI (RPMI-8226 leukemia) was > 100 µM, the TGI (HOP-62 NSCLC) was > 100 µM and the TGI (MDA-MB-231 breast) was > 100 µM. For the same compound, the TGI (NCI-H23 lung) was > 100 µM, the TGI (U251 CNS) was > 100 µM and the TGI (OVCAR-5 ovarian) was > 100 µM. The TGI (UO-31 renal) was > 100 µM, the TGI (HL-60(TB) leukemia) was > 100 µM and the TGI (M14 melanoma) was > 100 µM. For the same compound, the TGI (SK-OV-3 ovarian) was > 100 µM, the TGI (RXF 393 renal) was > 100 µM and the TGI (NCI-H522 lung) was > 100 µM. The TGI (SK-MEL-2 melanoma) was > 100 µM, the TGI (HOP-92 NSCLC) was > 100 µM and the TGI (SF-268 CNS) was > 100 µM. For the same compound, the TGI (A498 renal) was > 100 µM, the TGI (SN12C renal) was > 100 µM and the TGI (SW-620 colon) was > 100 µM. The TGI (MDA-MB-435) was > 100 µM, the TGI (EKVX NSCLC) was > 100 µM and the TGI (LOX IMVI melanoma) was > 100 µM. The TGI (COLO 205 colon) was > 100 µM, the TGI (NCI-H226 lung) was > 100 µM and the TGI (SF-295 CNS) was > 100 µM. The TGI (IGROV1 ovarian) was > 100 µM, the TGI (SNB-19 CNS) was > 100 µM and the TGI (OVCAR-8 ovarian) was > 100 µM. For the same compound, the TGI (HCT-116 colon) was > 100 µM, the TGI (T-47D breast) was > 100 µM and the TGI (HCT-15 colon) was > 100 µM. The TGI (NCI/ADR-RES ovarian) was > 100 µM, the TGI (KM12 colon) was > 100 µM and the TGI (PC-3 prostate) was > 100 µM. The TGI (TK-10 renal) was > 100 µM, the TGI (ACHN renal) was > 100 µM and the TGI (MOLT-4 leukemia) was > 100 µM. The TGI (SR leukemia) was > 100 µM, the TGI (HT29 colon) was > 100 µM and the TGI (MCF7 breast) was > 100 µM. For the same compound, the TGI (DU-145 prostate) was > 100 µM, the TGI (UACC-257 melanoma) was > 100 µM and the TGI (HCC-2998 colon) was > 100 µM. The TGI (CAKI-1 renal) was > 100 µM and the TGI (CCRF-CEM leukemia) was > 100 µM.
